Assays:
β-galactosidase = biological target: T1, β-galactosidase (Escherichia coli, UniProt P00722); assay: Enzymatic cleavage study (HPLC) with β-galactosidase; format: biochemical, e.coli; conditions: 100 μM prodrug in PBS, 2 units β-galactosidase, 37°C
T1 construct: purchased Roche; host or cells: E. coli overproducer
Experimental: (§1) To test the desired, selective enzymatic cleavage and further evaluate compound stability, solutions of each prodrug were prepared in phosphate-buffered saline (PBS), and either β-galactosidase or β-glucosidase were added. After incubation times of 24 h and 48 h, samples from each mixture were analyzed by HPLC to gain insight into the relative amounts of both the remaining prodrug and the liberated 1.
(§2) Fig. 3 HPLC traces after 48 h of enzyme incubation for the prodrugs of this study as indicated at their respective peaks. The identity of the employed enzyme is indicated on the left of the chromatogram and the identity of each observed compound is shown above the respective peak. Chromatograms are shown with an offset of 2 along the ordinate to facilitate comparison.
(§3) The three following enzymes were employed in this study:
(§4) (1) esterase from porcine liver sourced from Sigma Aldrich as dry powder with an activity of 229.4 units/mg protein as indicated by the supplier for the received lot; (2) β-glucosidase from almonds sourced from Sigma Aldrich as dry powder with an activity of 11.7 U/mg as indicated by the supplier for the received lot
(§5) (3) β-galactosidase from e.coli overproducer sourced from Roche as prepared aqueous solution with an activity of 1500 units/mL protein as indicated by the supplier for the […]
(§6) As indicated for each experiment below, the respective enzyme was dissolved in PBS buffer and diluted as appropriate to produce the desired concentration.
25 mM stock solutions in DMSO were prepared for 2a, 2b, 3a, and 3b. From these stock solutions, 4 µL was added to 1 mL of PBS buffer, respectively, in separate glass vials, achieving a final concentration of 100 µM. The vials were then assigned to one of three experimental groups: control, negative, and positive.
In the control group, no enzyme was introduced. The negative group received 2 units of esterase enzyme, while the positive group received 2 units of the target enzyme as indicated, either β-galactosidase or β-glucosidase. All vials were incubated in a 37°C water bath for 48 hours. Aliquots were extracted from each vial after 24 and 48 hours, respectively, and analyzed as described below.
(§7) The extracted aliquots were analyzed via high-performance liquid chromatography (HPLC) with ultraviolet (UV) detection at a wavelength of 254 nm. Chromatograms were plotted with an offset of 1 along the y-axis to allow clear intercomparison of the data across the […]

[1] = Stability in PBS without enzyme (HPLC control group); format: physicochemical; conditions: 100 μM in PBS, no enzyme, 37°C, up to 48 h
Experimental: Additional selectivity control experiments were conducted, in which either no enzyme or an “incorrect” enzyme such as an esterase was used (see Fig. S13–S24 in the ESI ^†).
as §3, §4, §5, §6
25 mM stock solutions in DMSO were prepared for 2a, 2b, 3a, and 3b. From these stock solutions, 4 µL was added to 1 mL of PBS buffer, respectively, in separate glass vials, achieving a final concentration of 100 µM. […]
In the control group, no enzyme was introduced. […] Aliquots were extracted from each vial after 24 and 48 hours, respectively, and analyzed as described below.
The extracted aliquots were analyzed via high-performance liquid chromatography (HPLC) with ultraviolet (UV) detection at a wavelength of 254 nm. […]

β-glucosidase [2] = assay: Enzymatic cleavage study (HPLC) with β-glucosidase; format: biochemical, almonds; conditions: for Release of 1 (HPLC): 100 μM prodrug in PBS, 2 units β-glucosidase, 37°C
Experimental: as §1, §2, §3, §4, §5, §6
25 mM stock solutions in DMSO were prepared for 2a, 2b, 3a, and 3b. […]
[…] The vials were then assigned to one of three experimental groups: control, negative, and positive.
In the control group, no enzyme was introduced. […]
All vials were incubated in a 37°C water bath for 48 hours. Aliquots were extracted from each vial after 24 and 48 hours, respectively, and analyzed as described below.
as §7

β-glucosidase [3] = assay: AIE fluorescence study of release of 1 with β-glucosidase; format: biochemical, almonds; conditions: for Relative emission intensity at 480 nm (for 3b at 420 nm): 20 μM in water; for Fluorescence emission / release of 1 (in words): water, three enzyme units of β-glucosidase, 0 h and 24 h
Experimental: The AIE fluorescence properties of 1 were used as a means of supporting the above conclusion. The emission of all glycosylated prodrugs is suppressed. Thus, solutions of each prodrug were prepared in water, and three enzyme units of β-galactosidase or β-glucosidase, as appropriate, were added to the prodrugs. Each mixture was then analysed by fluorescence spectroscopy after 24 h of incubation. […] This finding is consistent with a lack of enzymatic activation.
Fig. 4 Relative emission intensity at 480 nm (*for 3b at 420 nm) of evaluated compounds at 20 μM before and after incubation with 3 U of the appropriate enzyme. TEXT PRINTED IN THE PICTURE: 1: Relative Emission 480 nm: 100% (Before incubation); Relative Emission 480 nm: 100% (After 24 h incubation) | 2a: Relative Emission 480 nm: 0% (Before incubation); Relative Emission 480 nm: 0% (After 24 h incubation) | 2b: Relative Emission 480 nm: 0% (Before incubation); Relative Emission 480 nm: 1% (After 24 h incubation) | 3a: Relative Emission 480 nm: 1% (Before incubation); Relative Emission 480 nm: 33% (After 24 h incubation) | 3b*: Relative Emission 480 nm: 1% (Before incubation); Relative Emission 480 nm: 11% (After 24 h incubation)
Figure S25: Fluorescence spectra for excitation (blue) and emission (green) of 1 at a concentration of 20 μM in water. […]
Figure S27: Fluorescence spectra for excitation (blue) and emission (green) of 2b at a concentration of 20 μM in water
before (left) and after (right) incubation with 3 units of b-glucosidase for 24 h. […]
Figure S29: Fluorescence spectra for excitation (blue) and emission (green) of 3b at a concentration of 20 μM in water
before (left) and after (right) incubation with 3 units of β-glucosidase for 24 h. […]

[4] = after 24 h incubation with 3 U β-glucosidase
[5] = before incubation with 3 U β-glucosidase

T1 sequence (P00722 2-1024): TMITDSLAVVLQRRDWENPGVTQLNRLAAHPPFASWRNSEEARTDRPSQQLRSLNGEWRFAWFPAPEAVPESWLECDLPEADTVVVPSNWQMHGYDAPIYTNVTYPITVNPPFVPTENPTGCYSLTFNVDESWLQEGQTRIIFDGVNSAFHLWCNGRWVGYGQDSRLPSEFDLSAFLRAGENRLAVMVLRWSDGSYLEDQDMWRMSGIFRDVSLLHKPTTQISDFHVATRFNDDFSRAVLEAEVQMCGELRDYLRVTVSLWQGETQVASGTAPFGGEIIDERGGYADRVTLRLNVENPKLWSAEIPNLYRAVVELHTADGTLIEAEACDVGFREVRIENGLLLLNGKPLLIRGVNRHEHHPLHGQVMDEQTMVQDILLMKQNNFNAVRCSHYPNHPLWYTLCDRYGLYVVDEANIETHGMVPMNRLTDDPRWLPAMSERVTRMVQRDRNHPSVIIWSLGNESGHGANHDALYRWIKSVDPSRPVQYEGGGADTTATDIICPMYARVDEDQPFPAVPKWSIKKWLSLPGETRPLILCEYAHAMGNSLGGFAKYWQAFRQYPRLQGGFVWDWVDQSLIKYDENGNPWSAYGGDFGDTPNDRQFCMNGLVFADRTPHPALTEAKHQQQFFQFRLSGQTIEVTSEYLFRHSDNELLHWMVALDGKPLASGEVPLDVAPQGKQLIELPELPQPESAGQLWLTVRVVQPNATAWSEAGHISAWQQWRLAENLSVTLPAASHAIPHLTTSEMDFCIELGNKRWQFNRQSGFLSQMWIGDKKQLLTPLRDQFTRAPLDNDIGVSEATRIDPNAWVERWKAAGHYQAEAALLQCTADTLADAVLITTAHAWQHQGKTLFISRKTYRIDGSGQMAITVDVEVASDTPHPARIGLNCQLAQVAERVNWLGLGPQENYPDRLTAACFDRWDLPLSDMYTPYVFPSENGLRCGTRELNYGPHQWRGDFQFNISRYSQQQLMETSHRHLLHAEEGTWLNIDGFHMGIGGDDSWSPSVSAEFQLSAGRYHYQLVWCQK

Release of 1 (HPLC) (β-glucosidase [2]; 24 h) | Release of 1 (HPLC) (β-glucosidase [2]; 48 h) | Relative emission intensity at 480 nm (for 3b at 420 nm) (β-glucosidase [3]; [4]) [%] | Relative emission intensity at 480 nm (for 3b at 420 nm) (β-glucosidase [3]; [5]) [%] | Fluorescence emission / release of 1 (in words) (β-glucosidase [3]) | Cleavage of 1 from prodrug (HPLC of the fluorescence sample) (β-glucosidase [2]; 20 μM in water, 3 enzyme units of β-glucosidase, 24 h) | Structure (SMILES) | Release of 1 (HPLC) (β-galactosidase; 24 h) | Release of 1 (HPLC) (β-galactosidase; 48 h) | Stability in PBS / aqueous media [1]
– | – | – | – | – | – | OC[C@H]1OC(Oc2ccc(COc3ccccc3-c3nc(-c4ccccc4O)nn3-c3ccccc3)cc2)[C@H](O)[C@@H](O)[C@H]1O (some centres unmarked) [3a] | significant release of 1 | further increased | –
no release of 1 was observed | no release of 1 was observed | 1 | 0 | no fluorescence emission was observed | – | OC[C@H]1OC(Oc2ccccc2-c2nc(-c3ccccc3O)nn2-c2ccccc2)[C@H](O)[C@@H](O)[C@@H]1O (some centres unmarked) [2b] | – | – | good stability in aqueous media
significant release of 1 | further increased | 11 | 1 | less pronounced emission | successful cleavage | OC[C@H]1OC(Oc2ccc(COc3ccccc3-c3nc(-c4ccccc4O)nn3-c3ccccc3)cc2)[C@H](O)[C@@H](O)[C@@H]1O (some centres unmarked) [3b] | – | – | –
– | – | – | – | – | – | OC[C@H]1OC(Oc2ccccc2-c2nc(-c3ccccc3O)nn2-c2ccccc2)[C@H](O)[C@@H](O)[C@H]1O (some centres unmarked) [2a] | no release of 1 was observed | no release of 1 was observed | good stability in aqueous media

— article PMC12177571, “Glycosidase-activated prodrugs of a cytotoxic iron chelator for targeted cancer therapy” (RSC Medicinal Chemistry, 2025)
